Results from PubChem BioAssay AID248 (DTP/NCI, 2004).
Several values for one entry are separate records, joined by “and”; a condition that tells them apart may be missing. Equal entries are not always repeated. Toxic doses and inconclusive results are not listed. No stated cut-off is given here; in the data, active means T/C of 150% or more; inactive means T/C below 125%.

Test system: L1210 leukemia ip in BDF1 mice, survival T/C
Assay: NCI In Vivo Anticancer Drug Screen. Data for tumor model L1210 Leukemia (intraperitoneal) in B6D2F1 (BDF1) mice
Details: endpoint: mean survival time, higher = longer survival
Summary of the method: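 Tumor was transplanted into mice, which were then dosed with test compound or vehicle alone. Survival was recorded for each group, and the treated figure was expressed relative to the control figure.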

[1] = dose: 100.0 mg/kg/injection, schedule: Q01DX001 (ip), vehicle: other
[2] = dose: 200.0 mg/kg/injection, schedule: Q01DX001 (ip), vehicle: other
[3] = dose: 12.5 mg/kg/injection, schedule: Q01DX009 (ip), vehicle: saline
[4] = dose: 25.0 mg/kg/injection, schedule: Q01DX009 (ip), vehicle: saline
[5] = dose: 100.0 mg/kg/injection, schedule: Q01DX009 (ip), vehicle: Klucel (hydroxypropylcellulose) (HPC)
[6] = dose: 100.0 mg/kg/injection, schedule: Q04DX003 (ip), vehicle: Klucel (hydroxypropylcellulose) (HPC)
[7] = dose: 200.0 mg/kg/injection, schedule: Q01DX009 (ip), vehicle: Klucel (hydroxypropylcellulose) (HPC)
[8] = dose: 200.0 mg/kg/injection, schedule: Q04DX003 (ip), vehicle: Klucel (hydroxypropylcellulose) (HPC)
[9] = dose: 400.0 mg/kg/injection, schedule: Q01DX009 (ip), vehicle: Klucel (hydroxypropylcellulose) (HPC)
[10] = dose: 400.0 mg/kg/injection, schedule: Q04DX003 (ip), vehicle: Klucel (hydroxypropylcellulose) (HPC)
[11] = dose: 100.0 mg/kg/injection, schedule: Q04DX002 (ip), vehicle: saline

Measured: T/C

CN=C(N)c1ccc(N=C(N)c2cccc(C(N)=Nc3ccc(C(N)=NC)cc3)c2)cc1
inactive: dose: 15.0 mg/kg/injection, schedule: Q01DX Z (ip), vehicle: saline 97 % of control | dose: 30.0 mg/kg/injection, schedule: Q01DX Z (ip), vehicle: saline 120 % of control

Cc1ccc2c(c1)C=C/C(=C/c1cc[n+](C)c3ccccc13)N2C
inactive: [1] 97 % of control | [2] 92 % of control

NCCN1CCc2ccccc2C1
inactive: dose: 6.25 mg/kg/injection, schedule: Q01DX009 (ip), vehicle: saline 93 % of control | [3] 106 % of control | [4] 102 % of control

O=S(=O)(Nc1cccc(C(F)(F)F)c1)c1ccccc1
inactive: [5] 106 % of control | [6] 98 % of control | [7] 107 % of control | [8] 97 % of control | [9] 101 % of control | [10] 95 % of control

NC(c1ccccc1)C1C(c2ccccc2)N1C1CCCCC1 (centres undefined)
inactive: [6] 95 % of control | [8] 86 % of control | [10] 98 % of control

CNC(=O)NC(C)=C(C#N)C#N
inactive: dose: 75.0 mg/kg/injection, schedule: Q01DX001 (ip), vehicle: saline 94 % of control | dose: 150.0 mg/kg/injection, schedule: Q01DX001 (ip), vehicle: saline 111 % of control

CCOc1ccc([N+](=O)[O-])cc1CN(CC)CC
inactive: dose: 5.0 mg/kg/injection, schedule: Q01DX009 (ip), vehicle: saline 97 % of control | dose: 9.5 mg/kg/injection, schedule: Q01DX001 (ip), vehicle: saline 109 % of control | dose: 10.0 mg/kg/injection, schedule: Q01DX009 (ip), vehicle: saline 95 % of control | dose: 10.0 mg/kg/injection, schedule: Q04DX003 (ip), vehicle: saline 97 % of control | dose: 19.0 mg/kg/injection, schedule: Q01DX001 (ip), vehicle: saline 106 % of control | dose: 20.0 mg/kg/injection, schedule: Q01DX009 (ip), vehicle: saline 89 % of control | dose: 20.0 mg/kg/injection, schedule: Q04DX003 (ip), vehicle: saline 102 % of control | dose: 38.0 mg/kg/injection, schedule: Q01DX001 (ip), vehicle: saline 98 % of control

COP(=O)(OC)C1CC2CCC1C2 (centres undefined)
inactive: dose: 100.0 mg/kg/injection, schedule: Q04DX003 (ip), vehicle: acetone 102 % of control | dose: 200.0 mg/kg/injection, schedule: Q04DX003 (ip), vehicle: acetone 102 % of control | dose: 400.0 mg/kg/injection, schedule: Q04DX003 (ip), vehicle: acetone 100 % of control

O=S(=O)(O)c1cccc2cccc(N=Nc3ccc(O)cc3)c12
inactive: [1] 94 % of control | [2] 103 % of control | dose: 400.0 mg/kg/injection, schedule: Q01DX001 (ip), vehicle: other 94 % of control

Cc1ccc(NC(=O)Nc2ccccc2Cl)cc1
inactive: dose: 100.0 mg/kg/injection, schedule: Q01DX009 (ip), vehicle: gum acacia 86 % of control | dose: 100.0 mg/kg/injection, schedule: Q04DX003 (ip), vehicle: gum acacia 89 % of control | dose: 200.0 mg/kg/injection, schedule: Q01DX009 (ip), vehicle: gum acacia 94 % of control | dose: 200.0 mg/kg/injection, schedule: Q04DX003 (ip), vehicle: gum acacia 89 % of control | dose: 400.0 mg/kg/injection, schedule: Q01DX009 (ip), vehicle: gum acacia 94 % of control | dose: 400.0 mg/kg/injection, schedule: Q04DX003 (ip), vehicle: gum acacia 98 % of control

CC(C)N(CCC(=O)CC12CC3CC(CC(C3)C1)C2)C(C)C
inactive: dose: 25.0 mg/kg/injection, schedule: Q04DX002 (ip), vehicle: saline 92 % of control | dose: 50.0 mg/kg/injection, schedule: Q04DX002 (ip), vehicle: saline 98 % of control | [11] 95 % of control and 97 % of control

O=C1CC(C(c2ccccc2)c2ccccc2)CO1 (centres undefined)
inactive: dose: 100.0 mg/kg/injection, schedule: Q01DX001 (ip), vehicle: Klucel (hydroxypropylcellulose) (HPC) 104 % of control | [5] 110 % of control and 89 % of control | dose: 100.0 mg/kg/injection, schedule: Q04DX002 (ip), vehicle: Klucel (hydroxypropylcellulose) (HPC) 94 % of control and 99 % of control | [6] 94 % of control | dose: 200.0 mg/kg/injection, schedule: Q01DX001 (ip), vehicle: Klucel (hydroxypropylcellulose) (HPC) 100 % of control | [7] 113 % of control and 89 % of control | dose: 200.0 mg/kg/injection, schedule: Q04DX002 (ip), vehicle: Klucel (hydroxypropylcellulose) (HPC) 94 % of control and 96 % of control | [8] 94 % of control | dose: 400.0 mg/kg/injection, schedule: Q01DX001 (ip), vehicle: Klucel (hydroxypropylcellulose) (HPC) 98 % of control | [9] 116 % of control and 89 % of control | dose: 400.0 mg/kg/injection, schedule: Q04DX002 (ip), vehicle: Klucel (hydroxypropylcellulose) (HPC) 99 % of control and 101 % of control | [10] 95 % of control

Nc1ccc(CSc2ccc(Cl)cc2)cc1
inactive: dose: 12.5 mg/kg/injection, schedule: Q01DX009 (ip), vehicle: Klucel (hydroxypropylcellulose) (HPC) 94 % of control | dose: 25.0 mg/kg/injection, schedule: Q01DX009 (ip), vehicle: Klucel (hydroxypropylcellulose) (HPC) 97 % of control | dose: 50.0 mg/kg/injection, schedule: Q01DX009 (ip), vehicle: Klucel (hydroxypropylcellulose) (HPC) 87 % of control | dose: 75.0 mg/kg/injection, schedule: Q01DX009 (ip), vehicle: Klucel (hydroxypropylcellulose) (HPC) 88 % of control | dose: 170.0 mg/kg/injection, schedule: Q01DX009 (ip), vehicle: Klucel (hydroxypropylcellulose) (HPC) 94 % of control

O/N=C(/CN1CCCCC1)c1ccccc1
inactive: dose: 100.0 mg/kg/injection, schedule: Q04DX003 (ip), vehicle: saline with Tween-80 95 % of control | dose: 200.0 mg/kg/injection, schedule: Q04DX003 (ip), vehicle: saline with Tween-80 98 % of control | dose: 400.0 mg/kg/injection, schedule: Q04DX003 (ip), vehicle: saline with Tween-80 104 % of control

COCCOCCOc1ccc(Cl)cc1
inactive: [11] 92 % of control | dose: 200.0 mg/kg/injection, schedule: Q04DX002 (ip), vehicle: saline 107 % of control | dose: 400.0 mg/kg/injection, schedule: Q04DX002 (ip), vehicle: saline 88 % of control

CNC(CCC(=O)O)C(=O)O (centres undefined)
inactive: dose: 100.0 mg/kg/injection, schedule: Q01DX001 (ip), vehicle: saline 89 % of control | dose: 200.0 mg/kg/injection, schedule: Q01DX001 (ip), vehicle: saline 96 % of control | dose: 400.0 mg/kg/injection, schedule: Q01DX001 (ip), vehicle: saline 91 % of control

COC1=C(Nc2cccc(C)c2)C(=O)C(OC)=C(Nc2cccc(C)c2)C1=O
inactive: dose: 50.0 mg/kg/injection, schedule: Q01DX001 (ip), vehicle: carboxymethylcellulose (CMC) 94 % of control | dose: 100.0 mg/kg/injection, schedule: Q01DX001 (ip), vehicle: carboxymethylcellulose (CMC) 96 % of control | dose: 200.0 mg/kg/injection, schedule: Q01DX001 (ip), vehicle: carboxymethylcellulose (CMC) 94 % of control | dose: 400.0 mg/kg/injection, schedule: Q01DX001 (ip), vehicle: carboxymethylcellulose (CMC) 91 % of control

CN1Cc2cc3cc(c2O)C[N+](C)(C)Cc2c(Cl)c(c(Cl)c(c2Cl)C[N+](C)(C)C3)C1
inactive: [3] 98 % of control | dose: 12.5 mg/kg/injection, schedule: Q04DX003 (ip), vehicle: saline 97 % of control | [4] 98 % of control | dose: 25.0 mg/kg/injection, schedule: Q04DX003 (ip), vehicle: saline 97 % of control | dose: 50.0 mg/kg/injection, schedule: Q04DX003 (ip), vehicle: saline 92 % of control

C=CCN(Cc1cnc2nc(N)nc(N)c2n1)c1ccc(C(=O)NC(CCC(=O)O)C(=O)O)cc1 (centres undefined)
inactive: dose: 1.5 mg/kg/injection, schedule: Q01DX009 (ip), vehicle: sodium bicarbonate 108 % of control | dose: 3.0 mg/kg/injection, schedule: Q01DX009 (ip), vehicle: sodium bicarbonate 116 % of control | dose: 6.0 mg/kg/injection, schedule: Q01DX009 (ip), vehicle: sodium bicarbonate 118 % of control
